Numbered stars: 1 amine (or outer) side, 2 acyl side, 3 side chain; on linkers, the order of the positions; unused ones are H or OH. Bridge positions count the residues as written; N and C are the ends. Peptide text beside a SMILES is read from it. Pyridine(2,6-diCH2) = c1cc(C[*:1])nc(C[*:2])c1; CH2COCH2 = O=C(C[*:1])C[*:2]
Legend:
[1] = Stability of the compound in human plasma assessed as half life […] by LC-MS analysis; type: ADME, cell-free
Kallikrein-5 = biological target: T1, Kallikrein-5 (Homo sapiens, UniProt Q9Y337); assay: Inhibition of C-terminal poly-His-tagged human recombinant KLK5 (30 to 293 residues) transfected in CHO cells assessed as inhibition constant using Boc-VPR-AMC as fluorogenic substrate incubated for 30 mins by fluorescence plate reader assay; type: cell-based
T1 sequence (Q9Y337 whole entry): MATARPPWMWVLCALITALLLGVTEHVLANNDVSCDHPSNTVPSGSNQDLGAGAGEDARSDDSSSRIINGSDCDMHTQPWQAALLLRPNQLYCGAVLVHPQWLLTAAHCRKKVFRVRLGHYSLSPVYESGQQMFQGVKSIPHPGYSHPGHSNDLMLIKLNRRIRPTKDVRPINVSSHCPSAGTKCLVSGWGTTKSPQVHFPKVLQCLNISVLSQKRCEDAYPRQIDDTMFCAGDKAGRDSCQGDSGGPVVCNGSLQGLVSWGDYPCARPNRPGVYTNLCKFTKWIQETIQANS

Albumin = Albumin (Homo sapiens, UniProt P02768); assay: Binding affinity to human serum albumin by fluorescence polarization assay
Albumin, sequence (P02768 whole entry, the tested form may be a part): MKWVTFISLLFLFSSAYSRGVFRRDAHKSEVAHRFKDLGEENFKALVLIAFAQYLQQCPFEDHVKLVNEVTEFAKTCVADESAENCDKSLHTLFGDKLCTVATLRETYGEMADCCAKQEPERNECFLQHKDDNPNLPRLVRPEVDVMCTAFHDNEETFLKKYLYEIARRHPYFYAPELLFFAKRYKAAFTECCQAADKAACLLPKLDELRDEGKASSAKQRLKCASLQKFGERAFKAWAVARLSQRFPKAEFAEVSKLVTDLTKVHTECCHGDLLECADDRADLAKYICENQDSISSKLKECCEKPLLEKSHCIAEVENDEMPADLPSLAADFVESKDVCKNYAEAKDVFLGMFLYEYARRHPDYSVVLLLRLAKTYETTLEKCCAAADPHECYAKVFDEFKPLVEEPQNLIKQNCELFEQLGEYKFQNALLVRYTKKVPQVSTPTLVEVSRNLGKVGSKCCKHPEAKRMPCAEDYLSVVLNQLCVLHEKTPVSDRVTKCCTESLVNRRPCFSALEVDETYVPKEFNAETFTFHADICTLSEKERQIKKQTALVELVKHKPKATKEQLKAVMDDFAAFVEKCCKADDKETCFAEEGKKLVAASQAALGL

Kallikrein-7 = Kallikrein-7 (Homo sapiens, UniProt P49862); assay: Inhibition of C-terminal poly-His-tagged human recombinant KLK7 (30 to 253 residues) transfected in CHO cells assessed as inhibition constant using KHLY-pNA as fluorogenic substrate incubated for 30 mins by fluorescence plate reader assay; type: cell-based
Kallikrein-7, sequence (P49862 whole entry, the tested form may be a part): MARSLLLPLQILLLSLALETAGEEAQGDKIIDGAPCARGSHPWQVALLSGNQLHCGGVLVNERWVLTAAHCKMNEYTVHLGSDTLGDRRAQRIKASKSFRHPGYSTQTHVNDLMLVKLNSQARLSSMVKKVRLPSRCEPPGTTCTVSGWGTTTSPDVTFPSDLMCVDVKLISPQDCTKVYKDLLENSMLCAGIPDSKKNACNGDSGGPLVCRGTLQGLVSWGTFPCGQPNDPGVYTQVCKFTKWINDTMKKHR

Row | half-life [1] | Kd (Albumin) | SMILES | Ki (Kallikrein-5) | other results
1 | > 96 h | – | CCCCCCCCCCCCCCCC(=O)NCCCC[C@H](NC(=O)[C@H](CCC(=O)O)NC(=O)[C@H](Cc1ccc(O)cc1)NC(=O)[C@H](CCC(=O)O)NC(=O)COCCOCCNC(=O)c1ccc(-c2c3ccc(=O)cc-3oc3cc(O)ccc23)c(C(=O)O)c1)C(=O)N[C@@H](CCC(=O)O)C(=O)N[C@@H](Cc1ccc(O)cc1)C(=O)N[C@@H](CCC(=O)O)C(=O)NCCOCCOCC(=O)NCCCC[C@H](NC(=O)CNC(=O)[C@@H]1CSCC(=O)CSC[C@H](NC(=O)[C@@H]2CCCN2)C(=O)N[C@@H](CC(C)C)C(=O)N[C@@H](Cc2ccc(O)cc2)C(=O)N[C@@H](CCCC)C(=O)N[C@@H](C)C(=O)NCC(=O)N1)C(=O)NCC(N)=O | – | –
2 | – | – | CC(C)C[C@@H]1NC(=O)[C@@H](NC(=O)[C@H](CCC(N)=O)NC(=O)[C@@H]2CCCN2C(=O)[C@H](CC(N)=O)NC(=O)[C@H](C)NC(=O)[C@@H]2CSCC(=O)CSC[C@H](NC(=O)[C@H](C)N)C(=O)N[C@@H]([C@@H](C)O)C(=O)N[C@@H](CCCNC(=N)N)C(=O)N[C@@H](CCC(=O)O)C(=O)N[C@@H](Cc3ccc(O)cc3)C(=O)N[C@@H](CC(N)=O)C(=O)N3CCC[C@H]3C(=O)N[C@@H](CCC(N)=O)C(=O)N2)CSCC(=O)CSC[C@@H](C(=O)N[C@@H](Cc2cnc[nH]2)C(=O)O)NC1=O | 28 nM | –
3 | – | 118 nM | CCCCCCCCCCCCCCCC(=O)NCCCC[C@H](NC(=O)[C@H](CCC(=O)O)NC(=O)[C@H](Cc1ccc(O)cc1)NC(=O)[C@H](CCC(=O)O)NC(=O)COCCOCCNC(=O)c1ccc(-c2c3ccc(=O)cc-3oc3cc(O)ccc23)c(C(=O)O)c1)C(=O)N[C@@H](CCC(=O)O)C(=O)N[C@@H](Cc1ccc(O)cc1)C(=O)N[C@@H](CCC(=O)O)C(=O)NCCOCCOCC(=O)N[C@H]1CSCC(=O)CSC[C@@H](C(N)=O)NC(=O)[C@@H]2CCCN2C(=O)[C@H](Cc2ccc(O)cc2)NC(=O)[C@H](CCC(N)=O)NC(=O)[C@H](CCCNC(=N)N)NC(=O)[C@H]([C@@H](C)O)NC1=O | 23 nM | –
4 | – | – | C[C@@H](O)[C@@H]1NC(=O)[C@@H](NC(=O)CN)CSCC(=O)CSC[C@@H](C(=O)O)NC(=O)[C@@H]2CCCN2C(=O)[C@H](Cc2ccc(O)cc2)NC(=O)[C@H](CCC(=O)O)NC(=O)[C@H](CCCNC(=N)N)NC1=O | 3.2 nM | –
5 | – | – | C[C@@H](O)[C@@H]1NC(=O)[C@@H](NC(=O)CN)CSCC(=O)CSC[C@@H](C(=O)O)NC(=O)[C@@H]2CCCN2C(=O)[C@H](Cc2c[nH]c3ccccc23)NC(=O)[C@H](CCC(N)=O)NC(=O)[C@H](CCCNC(=N)N)NC1=O | 3.6 nM | –
6 | 4 h | – | CCCCCCCCCCCCCCCC(=O)NCCCC[C@H](NC(=O)[C@H](CCC(=O)O)NC(=O)[C@H](Cc1ccc(O)cc1)NC(=O)[C@H](CCC(=O)O)NC(=O)COCCOCCNC(=O)c1ccc(-c2c3ccc(=O)cc-3oc3cc(O)ccc23)c(C(=O)O)c1)C(=O)N[C@@H](CCC(=O)O)C(=O)N[C@@H](Cc1ccc(O)cc1)C(=O)N[C@@H](CCC(=O)O)C(=O)NCCOCCOCC(=O)NCCCC[C@H](NC(=O)CNC(=O)[C@@H]1CSCC(=O)CSC[C@H](NC(=O)[C@@H]2CCCN2)C(=O)N[C@@H](CC(C)C)C(=O)N[C@@H](Cc2ccc(O)cc2)C(=O)N[C@@H](CCCC)C(=O)N[C@@H](C)C(=O)N[C@@H](CCCCNC(=N)N)C(=O)N1)C(=O)NCC(N)=O | – | –
7 | – | – | CC(C)[C@H](NC(=O)[C@H]1CSCc2cccc(n2)CSC[C@@H](NC(=O)[C@H](CO)NC(=O)CNC(=O)[C@@H]2CCCN2C(=O)[C@@H](NC(=O)[C@H](CO)NC(=O)[C@H](CC(=O)O)NC(=O)[C@@H]2CSCc3cccc(n3)CSC[C@@H](NC(=O)CN)C(=O)N[C@@H]([C@@H](C)O)C(=O)N[C@@H](CCCNC(=N)N)C(=O)N[C@@H](CCC(N)=O)C(=O)N[C@@H](Cc3c[nH]c4ccccc34)C(=O)N3CCC[C@H]3C(=O)N2)C(C)C)C(=O)N[C@@H]([C@@H](C)O)C(=O)N1)C(=O)O | – | Ki (Kallikrein-5; cho): 2 nM
8 | – | 168 nM | CCCCCCCCCCCCCCCC(=O)NCCCC[C@H](NC(=O)[C@H](CCC(=O)O)NC(=O)[C@H](Cc1ccc(O)cc1)NC(=O)[C@H](CCC(=O)O)NC(=O)COCCOCCNC(=O)c1ccc(-c2c3ccc(=O)cc-3oc3cc(O)ccc23)c(C(=O)O)c1)C(=O)N[C@@H](CCC(=O)O)C(=O)N[C@@H](Cc1ccc(O)cc1)C(=O)N[C@@H](CCC(=O)O)C(=O)NCCOCCOCC(=O)N1CCC[C@H]1C(=O)N[C@H]1CSCC(=O)CSC[C@@H](C(=O)N[C@@H](CO)C(N)=O)NC(=O)[C@H](CCCNC(=N)N)NC(=O)[C@H](C)NC(=O)[C@H](CC(C)C)NC(=O)[C@H](Cc2ccc(O)cc2)NC(=O)[C@H](CC(C)C)NC1=O | – | Ki (Kallikrein-7): 106 nM
9 | > 96 h | – | CCCCCCCCCCCCCCCC(=O)NCCCC[C@H](NC(=O)[C@H](CCC(=O)O)NC(=O)[C@H](Cc1ccc(O)cc1)NC(=O)[C@H](CCC(=O)O)NC(=O)COCCOCCNC(=O)c1ccc(-c2c3ccc(=O)cc-3oc3cc(O)ccc23)c(C(=O)O)c1)C(=O)N[C@@H](CCC(=O)O)C(=O)N[C@@H](Cc1ccc(O)cc1)C(=O)N[C@@H](CCC(=O)O)C(=O)NCCOCCOCC(=O)NCCCC[C@H](NC(=O)CNC(=O)[C@@H]1CSCC(=O)CSC[C@H](NC(=O)[C@@H]2CCCN2)C(=O)N[C@@H](CC(C)C)C(=O)N[C@@H](Cc2ccc(O)cc2)C(=O)N[C@@H](CCCC)C(=O)N[C@@H](C)C(=O)N[C@@H](CCCNC(N)=O)C(=O)N1)C(=O)NCC(N)=O | – | –
10 | – | – | C[C@@H](O)[C@@H]1NC(=O)[C@@H](NC(=O)CN)CSCC(=O)CSC[C@@H](C(=O)O)NC(=O)[C@@H]2CCCN2C(=O)[C@H](Cc2c[nH]c3ccccc23)NC(=O)[C@H](CCC(=O)O)NC(=O)[C@H](CCCNC(=N)N)NC1=O | 5.1 nM | –
11 | – | – | CSCC[C@H](N)C(=O)N[C@H]1CSCC(=O)CSC[C@@H](C(=O)N[C@H]2CSCC(=O)CSC[C@@H](C(=O)N3CCC[C@H]3C(=O)O)NC(=O)[C@H]([C@@H](C)O)NC(=O)[C@H](CCCNC(=N)N)NC(=O)[C@H](CCC(N)=O)NC(=O)[C@@H]3CCCN3C2=O)NC(=O)[C@H](CC(C)C)NC(=O)[C@H](CO)NC(=O)[C@@H]2CCCN2C(=O)[C@H](CC(=O)O)NC(=O)[C@H](Cc2c[nH]c3ccccc23)NC(=O)[C@H](CCC(N)=O)NC(=O)[C@H](CCCNC(=N)N)NC(=O)[C@H](CO)NC1=O | 24 nM | –
12 | – | – | CC(C)[C@H](NC(=O)[C@H]1CSCc2cccc(n2)CSC[C@@H](NC(=O)[C@H](CO)NC(=O)CNC(=O)[C@@H]2CCCN2C(=O)[C@@H](NC(=O)[C@H](CO)NC(=O)[C@H](CC(=O)O)NC(=O)[C@@H]2CSCc3cccc(n3)CSC[C@H](NC(=O)CN)C(=O)N[C@@H]([C@@H](C)O)C(=O)N[C@@H](CCCNC(=N)N)C(=O)N[C@@H](CCC(N)=O)C(=O)N[C@@H](Cc3c[nH]c4ccccc34)C(=O)N3CCC[C@H]3C(=O)N2)C(C)C)C(=O)N[C@@H]([C@@H](C)O)C(=O)N1)C(=O)O | – | Ki (Kallikrein-5; cho): 2.7 nM
13 | 0.4 h | 164 nM | CCCCCCCCCCCCCCCC(=O)NCCCC[C@H](NC(=O)[C@H](CCC(=O)O)NC(=O)[C@H](Cc1ccc(O)cc1)NC(=O)[C@H](CCC(=O)O)NC(=O)COCCOCCNC(=O)c1ccc(-c2c3ccc(=O)cc-3oc3cc(O)ccc23)c(C(=O)O)c1)C(=O)N[C@@H](CCC(=O)O)C(=O)N[C@@H](Cc1ccc(O)cc1)C(=O)N[C@@H](CCC(=O)O)C(=O)NCCOCCOCC(=O)NCCCC[C@H](NC(=O)CNC(=O)[C@@H]1CSCC(=O)CSC[C@H](NC(=O)[C@@H]2CCCN2)C(=O)N[C@@H](CC(C)C)C(=O)N[C@@H](Cc2ccc(O)cc2)C(=O)N[C@@H](CC(C)C)C(=O)N[C@@H](C)C(=O)N[C@@H](CCCNC(=N)N)C(=O)N1)C(=O)NCC(N)=O | – | Ki (Kallikrein-7): 31 nM
14 | – | – | CC(C)[C@@H]1NC(=O)[C@H](CCC(N)=O)NC(=O)[C@H](CCCNC(=N)N)NC(=O)[C@H]([C@@H](C)O)NC(=O)[C@@H](NC(=O)CN)CSCc2cccc(n2)CSC[C@@H](C(=O)N[C@@H](CCC(N)=O)C(=O)N[C@@H](CCC(N)=O)C(=O)N[C@H](C(=O)N2CCC[C@H]2C(=O)N[C@@H](C)C(=O)N[C@H]2CSCc3cccc(n3)CSC[C@@H](C(=O)N[C@@H](CC(N)=O)C(=O)O)NC(=O)[C@H](C)NC(=O)[C@H](CO)NC(=O)[C@@H]3CCCN3C2=O)[C@@H](C)O)NC1=O (H-GCTRQVCQQTPACPSACN-OH; linker 2-7, 13-17 via Pyridine(2,6-diCH2)) | 7 nM | –
15 | < 0.0833 h | 39 nM | C[C@@H](O)[C@@H]1NC(=O)[C@@H](NC(=O)CN)CSCC(=O)CSC[C@@H](C(=O)O)NC(=O)[C@@H]2CCCN2C(=O)[C@H](Cc2ccc(O)cc2)NC(=O)[C@H](CCC(N)=O)NC(=O)[C@H](CCCNC(=N)N)NC1=O (H-GCTRQYPC-OH; linker 2-8 via CH2COCH2) | 2.2 nM | –
16 | < 0.0833 h | 39 nM | CC(C)C[C@@H]1NC(=O)[C@H](Cc2ccc(O)cc2)NC(=O)[C@H](CC(C)C)NC(=O)[C@@H](NC(=O)[C@@H]2CCCN2)CSCC(=O)CSC[C@@H](C(=O)N[C@@H](CO)C(=O)O)NC(=O)[C@H](CCCNC(=N)N)NC(=O)[C@H](C)NC1=O (H-PCLYLARCS-OH; linker 2-8 via CH2COCH2) | – | Ki (Kallikrein-7; cho): 16 nM
